Reference: ChEMBL document CHEMBL5346977, “Discovery of Novel d-(+)-Biotin-Conjugated Resorcinol Dibenzyl Ether-Based PD-L1 Inhibitors for Targeted Cancer Immunotherapy” (J Med Chem, 2023)
Calls of active or inactive are those of the source. The rule behind the calls is not given here.

What was measured:
B16-F10 [1] = assay: Antitumor activity against mouse B16-F10 cells implanted in allogenic BALB/c mouse assessed as decrease in PD-L1 protein level at 50 mg/kg, ip by flow cytometric analysis; type: functional, organism-based
[2] = MRT (0 to t) in Sprague-Dawley rat at 20 mg/kg, po measured after 48 hrs by HPLC-MS/MS analysis; type: ADME, organism-based; settings: in vivo
B16-F10 [3] = assay: Antitumor activity against mouse B16-F10 cells implanted in allogenic BALB/c mouse assessed as decrease in PD-L1 mRNA level at 50 mg/kg, ip by qPCR analysis; type: functional, organism-based
B16-F10 [4] = assay: Antitumor immunity against mouse B16-F10 cells implanted in allogenic BALB/c mouse assessed as increase in CD3+ T cells at 50 mg/kg, ip by flow cytometric analysis (reference value: 2.51%); type: functional
[5] = MRT (0 to infinity) in Sprague-Dawley rat at 20 mg/kg, po measured after 48 hrs by HPLC-MS/MS analysis; type: ADME, organism-based; settings: in vivo
[6] = Drug concentration in kidney of C57BL/6 mouse implanted with mouse B16-F10 cells at 50 mg/kg, ip measured after 2 hrs by UPLC-MS/MS analysis; type: ADME, organism-based; settings: read-out: Ct
[7] = AUC (0 to t) in Sprague-Dawley rat at 20 mg/kg, po measured after 48 hrs by HPLC-MS/MS analysis; type: ADME, organism-based; set-up: dose 20 mg/kg, time 48 hrs, route po; settings: in vivo
[8] = target: T1, Programmed cell death protein 1/Programmed cell death 1 ligand 1 (Homo sapiens) (UniProt Q15116+Q9NZQ7); assay: Inhibition of GST-tagged PD-1 (unknown origin)/His-tagged PD-L1 (unknown origin) interaction at 10 nM by HTRF binding assay relative to control; type: protein-complex assay
[9] = Drug concentration in lung of C57BL/6 mouse implanted with mouse B16-F10 cells at 50 mg/kg, ip measured after 4 hrs by UPLC-MS/MS analysis; type: ADME, organism-based; settings: read-out: Ct
[10] = Drug concentration in liver of C57BL/6 mouse implanted with mouse B16-F10 cells at 50 mg/kg, ip measured after 1 hrs by UPLC-MS/MS analysis; type: ADME, organism-based; settings: read-out: Ct
HepG2 = assay: Antitumor activity against human HepG2 cells assessed as reduction in cell viability at 1.1 to 10 uM incubated for 48 hrs by CCK-8 assay; type: functional, cell-based; settings: dose 1.1-10 µM
[11] = Drug concentration in brain of C57BL/6 mouse implanted with mouse B16-F10 cells at 50 mg/kg, ip measured after 2 hrs by UPLC-MS/MS analysis; type: ADME, organism-based; settings: read-out: Ct
[12] = target: T2, Programmed cell death 1 ligand 1 (Mus musculus, UniProt Q9EP73); assay: Binding affinity to mouse PD-L1 assessed as dissociation constant by MST analysis
[13] = Cmax in C57BL/6 mouse at 50 mg/kg, ip measured after 4 hrs by HPLC-MS/MS analysis; type: ADME, organism-based; set-up: dose 50 mg/kg, time 4 hrs, route ip; settings: in vivo
[14] = Tmax in Sprague-Dawley rat at 1 mg/kg, iv administered as single dose and measured after 48 hrs by HPLC-MS/MS analysis; type: ADME, organism-based; settings: in vivo
[15] = Toxicity in syngeneic C57BL/6 mouse implanted with mouse B16-F10 cells assessed as effect on body weight at 50 mg/kg, ip measured after 12 days; type: organism-based; settings: in vivo, 288 h, time 12 day
[16] = Tmax in Sprague-Dawley rat at 20 mg/kg, po measured after 48 hrs by HPLC-MS/MS analysis; type: ADME, organism-based; settings: in vivo
[17] = Drug concentration in tumor of C57BL/6 mouse implanted with mouse B16-F10 cells at 50 mg/kg, ip measured after 4 hrs by UPLC-MS/MS analysis; type: ADME, organism-based, Neoplasm; settings: read-out: Ct
[18] = Drug concentration in spleen of C57BL/6 mouse implanted with mouse B16-F10 cells at 50 mg/kg, ip measured after 4 hrs by UPLC-MS/MS analysis; type: ADME, organism-based; settings: read-out: Ct
[19] = Cmax in Sprague-Dawley rat at 20 mg/kg, po measured after 48 hrs by HPLC-MS/MS analysis; type: ADME, organism-based; set-up: dose 20 mg/kg, time 48 hrs, route po; settings: in vivo
[20] = target: T1, Programmed cell death protein 1/Programmed cell death 1 ligand 1 (Homo sapiens); assay: Inhibition of GST-tagged PD-1 (unknown origin)/His-tagged PD-L1 (unknown origin) interaction at 100 nM by HTRF binding assay relative to control; type: protein-complex assay
[21] = Drug concentration in liver of C57BL/6 mouse implanted with mouse B16-F10 cells at 50 mg/kg, ip measured after 4 hrs by UPLC-MS/MS analysis; type: ADME, organism-based; settings: read-out: Ct
[22] = target: Programmed cell death protein 1/Programmed cell death 1 ligand 1 (Homo sapiens, UniProt Q9NZQ7); assay: Inhibition of GST-tagged PD-1 (unknown origin)/His-tagged PD-L1 (unknown origin) interaction by HTRF binding assay relative to control; type: protein-complex assay
[23] = target: T2, Programmed cell death 1 ligand 1; assay: Binding affinity to mouse PD-L1 assessed as dissociation constant by SPR analysis
B16-F10 [24] = assay: Antitumor activity against mouse B16-F10 cells implanted in BALB/c mouse assessed as reduction in tumor volume at 50 mg/kg, ip administered once daily for 14 days relative to control; type: functional; set-up: scale not given: the % may be the effect or the level left; settings: time 14 day
[25] = Drug concentration in plasma of C57BL/6 mouse implanted with mouse B16-F10 cells at 50 mg/kg, ip measured after 1 hrs by UPLC-MS/MS analysis; type: ADME, organism-based
[26] = Drug concentration in spleen of C57BL/6 mouse implanted with mouse B16-F10 cells at 50 mg/kg, ip measured after 2 hrs by UPLC-MS/MS analysis; type: ADME, organism-based; settings: read-out: Ct
[27] = Drug concentration in brain of C57BL/6 mouse implanted with mouse B16-F10 cells at 50 mg/kg, ip measured after 4 hrs by UPLC-MS/MS analysis; type: ADME, organism-based; settings: read-out: Ct
[28] = Drug concentration in kidney of C57BL/6 mouse implanted with mouse B16-F10 cells at 50 mg/kg, ip measured after 0.5 hrs by UPLC-MS/MS analysis; type: ADME, organism-based; settings: read-out: Ct
[29] = Half-life in C57BL/6 mouse at 50 mg/kg, ip measured after 4 hrs by HPLC-MS/MS analysis; type: ADME, organism-based; settings: in vivo
[30] = Toxicity in allogenic BALB/c mouse implanted with mouse B16-F10 cells assessed as inflammatory cell infiltration in colon at 50 mg/kg, ip by H&E staining based analysis; type: organism-based; settings: in vivo
[31] = Drug concentration in tumor of C57BL/6 mouse implanted with mouse B16-F10 cells at 50 mg/kg, ip measured after 1 hrs by UPLC-MS/MS analysis; type: ADME, organism-based, Neoplasm; settings: read-out: Ct
[32] = Drug concentration in kidney of C57BL/6 mouse implanted with mouse B16-F10 cells at 50 mg/kg, ip measured after 1 hrs by UPLC-MS/MS analysis; type: ADME, organism-based; settings: read-out: Ct
[33] = Drug concentration in lung of C57BL/6 mouse implanted with mouse B16-F10 cells at 50 mg/kg, ip measured after 1 hrs by UPLC-MS/MS analysis; type: ADME, organism-based; settings: read-out: Ct
[34] = Drug concentration in heart of C57BL/6 mouse implanted with mouse B16-F10 cells at 50 mg/kg, ip measured after 1 hrs by UPLC-MS/MS analysis; type: ADME, organism-based; settings: read-out: Ct
[35] = Half-life in Sprague-Dawley rat at 1 mg/kg, iv administered as single dose and measured after 48 hrs by HPLC-MS/MS analysis; type: ADME, organism-based; settings: in vivo
[36] = Toxicity in […] with mouse B16-F10 cells assessed as effect on body weight at 50 mg/kg, ip administered once daily for 14 days; type: organism-based; settings: in vivo, 336 h, time 14 day

T2 sequence (Q9EP73 whole entry): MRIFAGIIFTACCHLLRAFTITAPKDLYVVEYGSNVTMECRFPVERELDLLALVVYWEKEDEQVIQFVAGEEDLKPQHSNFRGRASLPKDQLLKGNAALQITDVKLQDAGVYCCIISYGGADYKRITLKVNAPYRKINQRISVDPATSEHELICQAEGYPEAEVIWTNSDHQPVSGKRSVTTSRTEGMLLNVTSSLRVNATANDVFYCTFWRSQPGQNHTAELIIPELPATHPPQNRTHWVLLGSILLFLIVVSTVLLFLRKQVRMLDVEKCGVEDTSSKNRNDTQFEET
Programmed cell death protein 1/Programmed cell death 1 ligand 1, sequence (Q15116 whole entry): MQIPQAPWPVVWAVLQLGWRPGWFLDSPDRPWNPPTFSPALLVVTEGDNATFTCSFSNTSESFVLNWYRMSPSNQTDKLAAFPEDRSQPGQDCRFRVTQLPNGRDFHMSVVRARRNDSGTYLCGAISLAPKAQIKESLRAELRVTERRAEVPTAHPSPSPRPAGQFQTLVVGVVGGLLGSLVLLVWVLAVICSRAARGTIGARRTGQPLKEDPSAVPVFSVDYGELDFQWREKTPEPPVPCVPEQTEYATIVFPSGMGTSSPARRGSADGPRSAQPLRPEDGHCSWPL
Programmed cell death protein 1/Programmed cell death 1 ligand 1, sequence (Q9NZQ7 whole entry): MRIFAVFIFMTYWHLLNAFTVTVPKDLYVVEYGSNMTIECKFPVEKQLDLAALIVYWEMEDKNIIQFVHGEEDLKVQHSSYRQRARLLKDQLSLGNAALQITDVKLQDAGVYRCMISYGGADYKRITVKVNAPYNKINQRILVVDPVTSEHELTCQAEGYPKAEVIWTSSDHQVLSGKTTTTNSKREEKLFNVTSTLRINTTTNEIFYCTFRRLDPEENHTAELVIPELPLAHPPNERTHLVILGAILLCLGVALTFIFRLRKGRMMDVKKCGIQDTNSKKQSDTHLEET

Question: Which Activity (B16-F10 [1]) does the source give for `Cc1c(COc2cc(OCc3cccc(C#N)c3)c(CN3CCCCC3C(=O)NCCNC(=O)CCCC[C@@H]3SC[C@@H]4NC(=O)N[C@@H]43)cc2Cl)cccc1-c1ccccc1` (some centres not stated) here?
Answer: Active

Question: And the MRT last at 48 h [2]?
Answer: 6.9 h

Question: What about the Activity (B16-F10 [3]) of the same molecule?
Answer: Active

Question: And the Activity (B16-F10 [4])?
Answer: 24.9%

Question: And the MRT inf [5]?
Answer: 7.1 h

Question: And the concentration at 2 h [6]?
Answer: 208 ng/mL

Question: And the AUCt [7]?
Answer: 1160 ng·h/mL

Question: What about the inhibition [8] of the same molecule?
Answer: 103%

Question: And the concentration at 4 h [9]?
Answer: 143 ng/mL

Question: And the concentration at 1 h [10]?
Answer: 1980 ng/mL

Question: What about the Activity (HepG2) of the same molecule?
Answer: inactive

Question: And the concentration at 2 h [11]?
Answer: 4.2 ng/mL

Question: What about the Kd [12] of the same molecule?
Answer: 0.438 µM

Question: And the Cmax [13]?
Answer: 1540 ng/mL

Question: And the Tmax [14]?
Answer: 4.98 min

Question: What about the Activity [15] of the same molecule?
Answer: Non-Toxic

Question: What about the Tmax [16] of the same molecule?
Answer: 3.3 h

Question: And the concentration at 4 h [17]?
Answer: 94.2 ng/mL

Question: What about the concentration at 4 h [18] of the same molecule?
Answer: 7570 ng/mL

Question: What about the Cmax [19] of the same molecule?
Answer: 177 ng/mL

Question: What about the inhibition [20] of the same molecule?
Answer: 104%

Question: And the concentration at 4 h [21]?
Answer: 3650 ng/mL

Question: And the IC50 [22]?
Answer: 0.0018 µM

Question: And the Kd [23]?
Answer: 0.218 µM

Question: And the Activity (B16-F10 [24])?
Answer: 76.5%

Question: What about the concentration at 1 h [25] of the same molecule?
Answer: 1460 ng/mL

Question: What about the concentration at 2 h [26] of the same molecule?
Answer: 7180 ng/mL

Question: What about the concentration at 4 h [27] of the same molecule?
Answer: 4.6 ng/mL

Question: What about the concentration at 0.5 h [28] of the same molecule?
Answer: 134 ng/mL

Question: What about the t1/2 [29] of the same molecule?
Answer: 14.587 h

Question: What about the Activity [30] of the same molecule?
Answer: Non-Toxic

Question: And the concentration at 1 h [31]?
Answer: 28.4 ng/mL

Question: What about the concentration at 1 h [32] of the same molecule?
Answer: 219 ng/mL

Question: What about the concentration at 1 h [33] of the same molecule?
Answer: 193 ng/mL

Question: What about the concentration at 1 h [34] of the same molecule?
Answer: 15.9 ng/mL

Question: What about the half-life [35] of the same molecule?
Answer: 18.1 h

Question: What about the Activity [36] of the same molecule?
Answer: Non-Toxic
